Data from patent US5095018A, “3-benzyl-1,2,4-triazolo[4,3-α] pyrazines” (Burroughs Wellcome Co., priority 1989, dated 1992).
Read-outs that look alike come from different tables or passages of the source.

Assay: standard maximal electroshock test (MES), anticonvulsant activity
Assay type: in vivo
Details: HCl salt
Procedure: The anticonvulsant activity of certain compounds of the present invention were determined by a standard maximal electroshock test (MES); that described by L. A. Woodbury and V. D. Davenport, Arch. Int. Pharmacodyn, 1952, 92 95.

[1] = ip, intraperitoneal (I.P.), read-out: ED50 I.P.
[2] = oral (P.O.), read-out: ED50 P.O.

SMILES	ED50 [1] [mg/kg]	ED50 [2] [mg/kg]
Fc1ccccc1Cc1nnc2c(NC3CC3)nccn12 [Example 11, 8-(cyclopropylamino)-3-(2-fluorobenzyl)-1,2,4-triazolo[4,3-a]pyrazine]	9.4	–
Nc1nccn2c(Cc3cc(F)ccc3F)nnc12 [Example 7, 8-amino-3-(2,5-difluorobenzyl)-1,2,4-triazolo[4,3-a]pyrazine]	7.1	20.4
CNc1nccn2c(Cc3ccc(F)cc3)nnc12 [Example 5, 3-(4-fluorobenzyl)-8-(methylamino)-1,2,4-triazolo[4,3-a]pyrazine]	25	–
Nc1nccn2c(Cc3c(F)cccc3F)nnc12 [Example 9, 8-amino-3-(2,6-difluorobenzyl)-1,2,4-triazolo[4,3-a]pyrazine]	3.1	7.1
Fc1cccc(F)c1Cc1nnc2c(NC3CC3)nccn12 [Example 10, 8-(cyclopropylamino)-3-(2,6-difluorobenzyl)-1,2,4-triazolo[4,3-a]pyrazine]	7.2	–
Nc1nccn2c(Cc3ccccc3F)nnc12 [Example 2, 8-amino-3-(2-fluorobenzyl)-1,2,4-triazolo[4,3-a]pyrazine]	9.4	8
CNc1nccn2c(Cc3ccccc3)nnc12 [Example 3, 3-Benzyl-8-(methylamino)-1,2,4-triazolo[4,3-a]pyrazine]	6.2	15.6
CNc1nccn2c(Cc3cccc(F)c3)nnc12 [Example 4, 3-(3-fluorobenzyl)-8-(methylamino)-1,2,4-triazolo[4,3-a]pyrazine]	4.1	20.4
CNc1nccn2c(Cc3cc(F)ccc3F)nnc12 [Example 6, 3-(2,5-difluorobenzyl)-8-(methylamino)-1,2,4-triazolo[4,3-a]pyrazine]	4	10.2
CNc1nccn2c(Cc3ccccc3F)nnc12 [Example 1, 3-(2-fluorobenzyl)-8-(methylamino)-1,2,4-triazolo[4,3-a]pyrazine]	4.1	8.3
CNc1nccn2c(Cc3c(F)cccc3F)nnc12 [Example 8, 3-(2,6-difluorobenzyl)-8-(methylamino)-1,2,4-triazolo[4,3-a]pyrazine]	2	3
